US9133208B2, “Radiolabelled rotenone derivatives and their use in SPECT imaging” (priority 2011, dated 2015)

Assays:
[1] = Ex vivo biodistribution in Sprague-Dawley rats; conditions: 2 hr p.i.
Experimental: An amount of 0.5 mL of a 2.4 mCi/mL mixture of compounds 6-9 (Mixture A: composition comprising isomeric mixture of 12% 6 and 7 diastereomers; 88% 8 and 9 diastereomers) in 7% ethanol was diluted with 0.58 mL of 10 mM sodium acetate, pH 6.5 and 0.023 mL of 95% ethanol, to produce a 1.1 mL of a 1.1 mCi/mL solution having a value of pH of about 5. An amount of 0.8 mL of this solution (0.9 mCi) was injected through the tail veins of 14 Sprague-Dawley rats. Six of the rats were used to assess biodistribution of the mixture of compounds 6-9 after two hours, and the remaining eight rats were used to determine the biodistribution of the compounds after 24 hours. Selected organs were collected and weighed and the activity was measured for each organ with a gamma well counter using the detection range of 138-207 keV, and the measured values of activity were decay-corrected to the time of injection. The values of percentage of injected dose per gram of tissue (% ID/g) were calculated by taking the ratio of the activity in the organ over the total activity injected per gram of tissue. Uptake in the heart of the rat was confirmed by the SPECT/CT images shown in FIG. 5, in which the heart is well defined.
A biodistribution study was conducted according to the method described above using purified fractions of the mixture of isomers 6-9 (Mixture A).
FIGS. 3B-3E show HPLC chromatograms of the four separate fractions used in the biodistribution study: Fraction 1: fraction comprising 100% of Component A*; Fraction 2: fraction comprising an isomeric mixture comprising 15.2% Component A* and 84.8% Component B*; Fraction 3: fraction comprising an isomeric mixture comprising 4.4% Component A*, 4.4% Component B* and 91.2% Component C*; Fraction 4: fraction comprising an isomeric mixture comprising 1.5% Component A*, 0.8% Component B* and 97.7% Component D*.

dog heart [2] = conditions: representative dog, critical LAD stenosis, intravenous adenosine; cited from earlier work
pig heart = test: Uptake of radiotracers as a function of myocardial blood flow (MBF) in pig heart; type: in vivo; conditions: for myocardial flow rate at which uptake begins to level off (roll off): two hours after injection, stress and induced ischemic conditions
Text: The tissue and blood samples were weighed and measured using a gamma well counter to determine the amount of gamma radiation emitted by the I-123 radiolabel of the radio-iodinated tracers of the present invention. The measured gamma radiation in each segment represents the combined amount of gamma radiation emitted by the tracers in that segment during the resting and stressed states of the heart. The counts and the weights of the samples were also used to calculate the percentage of injected dose per gram of tissue (% ID/g). After the I-123 in the blood and tissue samples had completely decayed, both the tissue and the blood were dried in an oven at 70° C. for 48-72 h, the samples were sent for neutron activation and the gamma radiation emitted by each of the resulting radioactive [^198Au]gold-containing microspheres and [^153Sm]samarium-containing microspheres, which were embedded in the samples, were measured. Polar maps of the resting and stressed states of the isolated heart of the pig were generated using MATLAB™ to assemble the gamma measurement results in all the transected segments from the bottom (apex) to the top (AV groove) of the pig heart.
The myocardial blood flow (MBF) that was present in the tissue samples during the resting and stressed states was determined from the total amount of gamma radiation emitted from each of the radioactive gold and samarium microspheres, respectively, in the isolated transections of the heart of the pig and the dried blood sample according to the following equation: MBF=[(Reference blood sample withdrawal rate (4 mL/min)/(Weight of myocardial sample (g)]×[Isotope count (myocardial sample)/Isotope counts (reference blood sample)].
FIG. 8 illustrates a plot of uptake (percent of injected dose per gram of tissue; % ID/g) of the radiotracer compounds of the present invention as a function of the myocardial blood flow in the pig heart under stress and induced ischemic conditions as determined using the marked microspheres.

dog heart [3] = test: Literature tracer uptake vs microsphere flow in dog with critical LAD stenosis (Broisat et al., Glover et al.); type: in vivo
Text: The slope of a non-linear fitted line to the ^123I-ZIROT data shown in FIG. 3 of Broisat et al. is −3.59.

rabbit hearts = test: Myocardial distribution in isolated retrograde perfused (Langendorff) rabbit heart; set-up: species or system New Zealand White rabbits; conditions: for fractional appearance rates at later time points / initial peak fractional venous appearance rate: flow rate 1.7 ml/min/g LV, FIG. 9, qualitative
Experimental: Preparation of retrograde perfusion (Langendorff) was performed as previously described (R. C. Marshall, P. Powers-Risius, B. W. Reutter, S. E. Taylor, H. F. VanBrocklin, R. H. Huesman, T. F. Budinger J Nucl Med. 2001; 42:272-281, which is incorporated by reference herein) using hearts from 1.5-2.5 kg male New Zealand White rabbits (Charles River, Wilmington Mass.). Following an injection of heparin (5 mg/kg) and median sternotomy, hearts were excised keeping the ascending aorta and aortic branches, lungs and thymus intact. The hearts were immediately placed into an ice-cold bath containing modified Tyrode's solution ([…], 1 mM MgCl2, 28 mM NaHCO3, 0.44 mM NaH2PO4, 2.5 mM CaCl2, 6 mM KCl, 5 mM glucose, […] with 22 g/L BSA and aerated with 95% O2/5% CO2) and thymus and fatty tissue were quickly removed. The hearts were then suspended on an aortic cannula and perfused with pre-warmed modified Tyrode's buffer through a water jacketed, temperature regulated Langendorff perfusion system (Radnotti, Calif., USA) at a constant flow rate. Total time for suspension onto the Langendorff apparatus was typically 60 seconds or less. Following suspension on the aortic cannula, the remaining lung, trachea and extraneous tissues were removed.
Fluid from Thebesian circulation was drained via a polyethylene catheterized apical drain. A fluid filled latex ballon connected to a pressure transducer (Radnotti) was inserted into the left ventrical via the left atrium and mitral valve. Following excision of the right atrium, a pacing electrode (Radnotti) was placed at the level of the atria to allow controlled pacing of the heart.
Following final preparation, the left ventricular balloon was inflated to achieve an end-diastolic pressure of approximately 8-10 mmHg with a constant systolic pressure held between 60-80 mm Hg. The heart was continually perfused with modified Tyrode's solution warmed to 38° C. and was held in an enclosed chamber to maintain humidity and temperature. The heart was paced with a Grass SD9 stimulator (Harvard Apparatus, Montreal QC) at 180 beats per minute with a stimulus of 4 V delivered over 4 ms. Perfusion and ventricular pressures were monitored throughout the experiment using a BioPac data acquisition system (BioPac, Montreal QC).
Radioactivity from all samples were counted in a gamma counter and data was analyzed using Matlab software. […] Maximal uptake values were determined for ^99mTc-sestamibi and Mixture A at varying flow rates (0.35-3.1 ml/min/g LV wet weight).

[4] = compared with FIG. 9; cited from earlier work
[5] = Literature isolated perfused heart data of Marshall et al. 2001
Text: A slower myocardial exit is beneficial for clinical diagnostic imaging since this permits the physician to gather images over a longer period of time thereby increasing image resolution, sensitivity and quality.
Marshall et al. report slopes of 0.29 and 0.78 for the fitted linear lines to the maximal uptake data for ^99mTc-sestamibi and ^125I-rotenone, respectively. The slopes of the fitted lines to the data for ^99mTc-sestamibi and the isomers of Mixture A shown in FIG. 10 of the present application are 0.33 and 0.86, respectively. The value of the ratio of the slopes of the fitted lines for ^125I-rotenone and ^99mTc-sestamibi from Marshall et al. is 2.69, while the value of the ratio of the slopes of the fitted lines for Mixture A and ^99mTc-sestamibi shown in FIG. 10 is 2.61. […] A linear uptake of tracer with increasing flow is especially desired in a clinical setting since in patients, deficiencies in myocardial perfusion are almost exclusively detected at higher blood flow rates, i.e. during a stress test by comparison of low (ischemic) and high flow (normal) areas.

rat cardiomyocytes = test: Cell uptake (internalization) assay with labeled rotenone derivatives; type: cell-based; conditions: 0.5 μCi tracer, time points up to 5 min
Experimental: An internalization assay was used to test the in vitro function of candidate perfusion tracers. In this assay, cultures of rat cardiomyocytes were plated at a density of 3-5×10^5 cells/mL into 24-well tissue culture plates. The cardiomyocytes were then incubated with 0.5 μCi of radiolabeled tracer ^99mTc-tetrofosmin (Myoview™) or [^123I] iodinated rotenone (mixture containing isomers 6-9) mixed in cell culture medium (DMEM) and incubated for up to five minutes. At different time points, the total supernatant was collected, the cells were washed twice with PBS and then exposed and lysed with 1 M NaOH for 15 min. Samples were counted in a gamma well counter and the cellular protein was determined for the lysed samples. The data was analyzed to represent the total “internalized” fraction expressed as cpm per total protein (FIG. 4).

[6] = flow rates 0.35-3.1 ml/min/g LV wet weight

COc1cc2c(cc1OC)[C@@H]1C(=O)c3ccc4c(c3O[C@@H]1CO2)C[C@H](C(C)([123I])CO)O4 (single isomer, unassigned) [B*]
Heart [1]: slightly lower | Heart/Liver ratio [1]: relatively higher | Intestine [1]: significantly higher than others | Liver [1]: much lower

COc1cc2c(cc1OC)[C@@H]1C(=O)c3ccc4c(c3O[C@@H]1CO2)C[C@H](C(C)([123I])CO)O4 (single isomer, unassigned) [Fraction 1]
Blood [1]: 0.191 ± 0.040 % ID/g | Brain [1]: 0.063 ± 0.013 % ID/g | Femur [1]: 0.239 ± 0.083 % ID/g | Heart [1]: 1.617 ± 0.335 % ID/g | Heart/Blood ratio [1]: 8.46 ± 0.51 | Heart/Liver ratio [1]: 1.20 ± 0.35 | Heart/Lung ratio [1]: 4.54 ± 0.59 | Intestine [1]: 0.787 ± 0.186 % ID/g | Kidney [1]: 0.634 ± 0.099 % ID/g | Liver [1]: 1.363 ± 0.101 % ID/g | Lung [1]: 0.357 ± 0.059 % ID/g | Muscle [1]: 0.369 ± 0.117 % ID/g | Spleen [1]: 0.177 ± 0.031 % ID/g | Stomach [1]: 1.628 ± 0.837 % ID/g | Testis [1]: 0.128 ± 0.017 % ID/g | Thyroid [1]: 0.826 ± 0.191 % ID/g | Urine [1]: 0.528 ± 0.134 % ID/g

[C-]#[N+]CC(C)(C)OC.[C-]#[N+]CC(C)(C)OC.[C-]#[N+]CC(C)(C)OC.[C-]#[N+]CC(C)(C)OC.[C-]#[N+]CC(C)(C)OC.[C-]#[N+]CC(C)(C)OC.[Tc] [^99mTc-sestamibi]
slope of non-linear fitted line, activity (% normal) vs microsphere flow (FIG. 4 of Glover et al.) (dog heart [2]): −143 | slope of the non-linear fitted line, uptake (% ID/g) vs MBF (FIG. 8) (pig heart; pig hearts): −1.21 | myocardial flow rate at which uptake begins to level off (roll off) (pig heart): 1.5 mL/min/g | standardized slope (Glover et al. slope divided by 100) (dog heart [3]; representative dog, critical LAD stenosis, intravenous adenosine): −1.43 | fractional appearance rates at later time points (rabbit hearts): higher fractional appearance rates | initial peak fractional venous appearance rate (rabbit hearts): lower fractional venous appearance rates | intercept of linear regression, maximum net uptake vs flow (rabbit hearts; [6]): 0.14 | slope of linear regression, maximum net uptake vs flow (FIG. 10) (rabbit hearts; [6]): 0.33

COc1cc2c(cc1OC)C1C(=O)c3ccc4c(c3OC1CO2)CC(/C(C)=C\[123I])O4 (stereo not shown) [^123I-ZIROT, 7-(Z)-[^123I]iodorotenone]
slope of non-linear fitted line, uptake vs microsphere flow (FIG. 3 of Broisat et al.) (dog heart [2]): −3.59 | ratio of slope (Broisat et al.) to standardized ^99mTc-Sestamibi slope (Glover et al.) (dog heart [3]; dog literature data): 2.5

COc1cc2c(cc1OC)C1C(=O)c3ccc4c(c3OC1CO2)CC(/C(C)=C\[125I])O4 (stereo not shown) [^125I-rotenone, 7′-Z-[^125I]iodorotenone]
venous effluent rate at the later portions of the curve (FIG. 1 of Marshall et al.) [4]: higher venous effluent rate relative to the isomers of Mixture A | ratio of the slopes of the fitted lines vs ^99mTc-sestamibi (Marshall et al.) [5]: 2.69

[201Tl] [^201Tl, ^201Thallium]
fractional appearance rates at later time points (rabbit hearts): higher fractional appearance rates | initial peak fractional venous appearance rate (rabbit hearts): lower fractional venous appearance rates

Technetium (^99mTc) tetrofosmin [^99mTc-tetrofosmin]
myocardial flow rate at which uptake begins to level off (roll off) (pig heart): 2 mL/min/g | cellular internalization over time (cpm per total protein) (rat cardiomyocytes): evident at 15 s but a gradual increase was seen up to 5 min
